Converted amounts (≈) assume the structure as drawn. Like-named read-outs stand apart in the source and are kept apart here.
What was measured:
[1] = test system: Candida albicans; assay: Minimal Inhibitory Concentration (MIC) assay, broth microdilution per CLSI; type: cell-based; details: Candida albicans, read-out: Minimum Inhibitory Concentrations against Yeast Isolates, Candida albicans;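 also: two read times 24 hr and 48 hr of incubation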
Outline: (§1)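 Yeast isolates were grown overnight at 35° C on Sabouraud dextrose agar, adjusted to 0.5 McFarland in saline and diluted 1:100 in RPMI buffered with 0.165 M MOPS, pH 7.0. Compounds in DMSO were serially diluted 1:1. After 24-48 hr at 35° C, MIC was the lowest concentration inhibiting visible growth.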

[2] = test system: Candida glabrata; assay: as above; type: cell-based; details: Nakaseomyces glabratus, read-out: Minimum Inhibitory Concentrations against Yeast Isolates, Candida glabrata;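 also: two read times 24 hr and 48 hr of incubation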
Outline: as §1

[3] = test system: Candida parapsilosis; assay: as above; type: cell-based; details: Lodderomyces parapsilosis, read-out: Minimum Inhibitory Concentrations against Yeast Isolates, Candida parapsilosis;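 also: two read times 24 hr and 48 hr of incubation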
Outline: as §1

[4] = test system: C. glabrata; assay: Checkerboard FIC assay in combination with fluconazole (MIC alone and in combination, FICI); type: cell-based, Candida glabrata; details: for FICI of combination resulting in fluconazole MIC of: 2 ug/mL / FICI of combination resulting in fluconazole MIC of: 4 ug/mL / FICI of combination resulting in fluconazole MIC of: 8 ug/mL: FICI calculated using a fluconazole MIC of 16 μg/mL; for FICI of combination resulting in fluconazole MIC of: 2 ug/mL (value in parenthesis) / FICI of combination resulting in fluconazole MIC of: 4 ug/mL (value in parenthesis) / FICI of combination resulting in fluconazole MIC of: 8 ug/mL (value in parenthesis): FICI using a fluconazole MIC of 128 μg/mL; for MIC: Nakaseomyces glabratus; for Concentration of Methylgene compound to synergize fluconazole MIC to 2 ug/mL / Concentration of Methylgene compound to synergize fluconazole MIC to 4 ug/mL / Concentration of Methylgene compound to synergize fluconazole MIC to 8 ug/mL: in combination with fluconazole; for Concentration of Methylgene compound to synergize fluconazole MIC to 2 ug/mL: fluconazole MIC lowered to 2 ug/mL; for Concentration of Methylgene compound to synergize fluconazole MIC to 4 ug/mL: fluconazole MIC lowered to 4 ug/mL; for Concentration of Methylgene compound to synergize fluconazole MIC to 8 ug/mL: fluconazole MIC lowered to 8 ug/mL; for Multiple of compound MIC to synergize fluconazole MIC to 2 ug/mL / Multiple of compound MIC to synergize fluconazole MIC to 4 ug/mL / Multiple of compound MIC to synergize fluconazole MIC to 8 ug/mL: concentration in combination as multiple of the compound's MIC alone; for Multiple of compound MIC to synergize fluconazole MIC to 2 ug/mL: fluconazole MIC 2 ug/mL; for Multiple of compound MIC to synergize fluconazole MIC to 4 ug/mL: fluconazole MIC 4 ug/mL; for Multiple of compound MIC to synergize fluconazole MIC to 8 ug/mL: fluconazole MIC 8 ug/mL
Outline: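 C. glabrata was tested by CLSI broth microdilution checkerboard, crossing 2-fold dilutions of compound with 2-fold dilutions of fluconazole. The medium was RPMI with 0.165 M MOPS at pH 7.0, inoculated from a 0.5 McFarland suspension diluted 1:100, then incubated about 48 h at 35 °C. Single-agent MICs gave the FIC and FICI values.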

[5] = 24 hr reading (first value of cell 24 hr/48 hr)
[6] = 48 hr reading (second value of cell 24 hr/48 hr)
[7] = MIC of the example compound alone against C. glabrata in the checkerboard assay, approximately 48 hr, read-out: Methylgene MIC
[8] = test compound alone, C. glabrata, approx. 48 hr at 35° C., read-out: Compound MIC

| Compound | MIC [1, 5] [µg/mL] | MIC [1, 6] [µg/mL] | MIC [2, 5] [µg/mL] | MIC [2, 6] [µg/mL] | MIC [3, 5] [µg/mL] | MIC [3, 6] [µg/mL] | FICI of combination resulting in fluconazole MIC of: 2 ug/mL ([4]; C. glabrata) | FICI of combination resulting in fluconazole MIC of: 4 ug/mL ([4]; C. glabrata) | FICI of combination resulting in fluconazole MIC of: 8 ug/mL ([4]; C. glabrata) | FICI of combination resulting in fluconazole MIC of: 2 ug/mL (value in parenthesis) ([4]; C. glabrata) | FICI of combination resulting in fluconazole MIC of: 4 ug/mL (value in parenthesis) ([4]; C. glabrata) | FICI of combination resulting in fluconazole MIC of: 8 ug/mL (value in parenthesis) ([4]; C. glabrata) | MIC [4, 7] [µg/mL] | MIC [4, 8] [µg/mL] | Concentration of Methylgene compound to synergize fluconazole MIC to 2 ug/mL ([4]; C. glabrata) [µg/mL] | Concentration of Methylgene compound to synergize fluconazole MIC to 4 ug/mL ([4]; C. glabrata) [µg/mL] | Concentration of Methylgene compound to synergize fluconazole MIC to 8 ug/mL ([4]; C. glabrata) [µg/mL] | Multiple of compound MIC to synergize fluconazole MIC to 2 ug/mL [4] | Multiple of compound MIC to synergize fluconazole MIC to 4 ug/mL [4] | Multiple of compound MIC to synergize fluconazole MIC to 8 ug/mL [4] |
| --- | --- | --- | --- | --- | --- | --- | --- | --- | --- | --- | --- | --- | --- | --- | --- | --- | --- | --- | --- | --- |
| O=C(Cc1ccc(CCCCc2ccc(C(=O)N3CCOCCOCCOCCOCCOCC3)cc2)cc1)NO [Example 24, 2-(4-(4-(4-(1,4,7,10,13-pentaoxa-16-azacyclooctadecane-16-carbonyl)phenyl)butyl)phenyl)-N-hydroxyacetamide] | > 64 | > 64 | 16 (≈ 27.9 µM) | 64 (≈ 112 µM) | > 64 | > 64 | 0.313 | 0.250 | 0.313 | 0.266 | 0.156 | 0.125 | > 16 | > 16 | 8 | 4 | 2 | – | – | – |
| O=C(Cc1ccc(CCCCc2ccccc2NC(=O)CO)cc1)NO [Example 46, N-hydroxy-2-(4-(4-(2-(2-hydroxyacetamido)phe-nyl)butyl)phenyl)acetamide] | > 64 | > 64 | 64 (≈ 180 µM) | > 64 | > 64 | > 64 | 0.563 | 0.625 | 0.500 | 0.516 | 0.531 | 0.313 | > 16 | > 16 | 16 | 16 | 8 | – | – | – |
| CN1CCC(C(=O)Nc2cccc(CCCCc3ccc(CC(=O)NO)cc3)c2)CC1 [Example 43, N-(3-(4-(4-(2-(hydroxyamino)-2-oxoethyl)phenyl)butyl)phenyl)-1-methylpiperidine-4-carboxamide] | > 64 | > 64 | 16 (≈ 37.8 µM) | 64 (≈ 151 µM) | > 64 | > 64 | 0.313 | 0.250 | 0.313 | 0.266 | 0.156 | 0.125 | > 16 | > 16 | 8 | 4 | 2 | – | – | – |

Further lines, results first:

| MIC [1, 5] [µg/mL] | MIC [1, 6] [µg/mL] | MIC [2, 5] [µg/mL] | MIC [2, 6] [µg/mL] | MIC [3, 5] [µg/mL] | MIC [3, 6] [µg/mL] | FICI of combination resulting in fluconazole MIC of: 2 ug/mL ([4]; C. glabrata) | FICI of combination resulting in fluconazole MIC of: 4 ug/mL ([4]; C. glabrata) | FICI of combination resulting in fluconazole MIC of: 8 ug/mL ([4]; C. glabrata) | FICI of combination resulting in fluconazole MIC of: 2 ug/mL (value in parenthesis) ([4]; C. glabrata) | FICI of combination resulting in fluconazole MIC of: 4 ug/mL (value in parenthesis) ([4]; C. glabrata) | FICI of combination resulting in fluconazole MIC of: 8 ug/mL (value in parenthesis) ([4]; C. glabrata) | MIC [4, 7] [µg/mL] | MIC [4, 8] [µg/mL] | Concentration of Methylgene compound to synergize fluconazole MIC to 2 ug/mL ([4]; C. glabrata) [µg/mL] | Concentration of Methylgene compound to synergize fluconazole MIC to 4 ug/mL ([4]; C. glabrata) [µg/mL] | Concentration of Methylgene compound to synergize fluconazole MIC to 8 ug/mL ([4]; C. glabrata) [µg/mL] | Multiple of compound MIC to synergize fluconazole MIC to 2 ug/mL [4] | Multiple of compound MIC to synergize fluconazole MIC to 4 ug/mL [4] | Multiple of compound MIC to synergize fluconazole MIC to 8 ug/mL [4] | Compound |
| --- | --- | --- | --- | --- | --- | --- | --- | --- | --- | --- | --- | --- | --- | --- | --- | --- | --- | --- | --- | --- |
| 32 (≈ 107 µM) | 32 (≈ 107 µM) | > 32 | > 32 | 32 (≈ 107 µM) | 32 (≈ 107 µM) | 0.625 | 0.500 | 0.625 | 0.516 | 0.281 | 0.188 | 2 | 2 | 1 | 0.5 | 0.25 | (½x) | (¼x) | (⅛x) | Nc1cccc(CCCCc2ccc(CC(=O)NO)cc2)c1 [Example 32, 2-(4-(4-(3-aminophenyl)butyl)phenyl)-N-hydroxyacetamide] |
| > 8 | > 8 | 0.5 (≈ 1.4 µM) | > 8 | > 8 | > 8 | > 0.125 | > 0.188 | > 0.281 | > 0.078 | > 0.094 | > 0.094 | > 4 | > 4 | 0.5 | 0.5 | 0.25 | – | – | – | O=C(Cc1ccc(CCCCc2ccc(CC(=O)NO)cc2)cc1)NO [Example 7, 2,2′-(4,4′-(butane-1,4-diyl)bis(4,1-phenylene))bis(N-hydroxyacetamide)] |
| 8 (≈ 23.3 µM) | 16 (≈ 46.6 µM) | 2 (≈ 5.82 µM) | 4 (≈ 11.6 µM) | 16 (≈ 46.6 µM) | > 16 | 0.313 | 0.375 | 0.375 | 0.266 | 0.281 | 0.188 | 4 | 4 | 1 | 1 | 0.5 | (¼x) | (¼x) | (⅛x) | COc1ccc(CCCCc2ccc(CC(=O)NO)cc2)cc1OC [Example 13, 2-(4-(4-(3,4-dimethoxyphenyl)butyl)phenyl)-N-hydroxyacetamide] |

Reference: patent publication US20140081017A1, “Histone Deacetylase Inhibitors for Enhancing Activity of Antifungal Agents” (METHYLGENE INC., priority 2012, published 2014)
